Data taken from patent US6589963B2, “Heterocyclic compounds and salts thereof and medicinal use of the same” (Kyoto Pharmaceutical Industries, Ltd., priority 1999, dated 2003).

test system: male KK-A^y mice; assay: Hypoglycemic action (method A); assay type: in vivo, mouse; settings: dose 10 mg/kg orally, 4 consecutive days, non-fasting, about 24 hours after final administration, vs control group
Experimental: The glucose level in the plasma was measured using a commercially available assay kit (glucose CII-test WAKO, Wako Pure Chemical Industries, Ltd.). The mice were grouped (5 mice per group) into a control group and an administration group, such that the mean and the standard deviation of the glucose level in the plasma of each group were nearly the same. Each test compound was suspended or dissolved in 5% gum arabic solution and administered orally to the administration group for 4 consecutive days from the next day. The 5% gum arabic solution was orally administered to the control group. Blood was drawn from the tail vein under a non-fasting state about 24 hours after the final administration and the glucose level in the plasma was measured. The decrease in the plasma glucose level was calculated from the following formula.
Decrease (%) in plasma glucose level=[(mean plasma glucose level of control group−mean plasma glucose level of test compound administration group)/mean plasma glucose level of control group]×100

Going from CCCCCCN1Cc2cc(OCCc3nc(-c4ccccc4)oc3C)ccc2C[C@H]1C(=O)O [Example 6] to Cc1oc(-c2ccccc2)nc1CCOc1ccc2c(c1)CN(CC(C)C)[C@H](C(=O)O)C2 [Example 7, 2-Isobutyl-7-[2-(5-methyl-2-phenyloxazol-4-yl)ethoxy]-1,2,3,4-tetrahydroisoquinoline-(3S)-carboxylic acid], the “Decrease (%) in plasma glucose level” value rises from 10.7% to 11.4%.

same assay, conditions: dose 30 mg/kg orally, 4 consecutive days, non-fasting, about 24 hours after final administration, vs control group

First: CC(=O)N1Cc2cc(OCCc3nc(-c4ccccc4)oc3C)ccc2C[C@H]1C(=O)O [Example 3, 2-Acetyl-7-[2-(5-methyl-2-phenyloxazol-4-yl)ethoxy]-1,2,3,4-tetrahydroisoquinoline-(3S)-carboxylic acid]
Second: CC(C)=CC(=O)N1Cc2cc(OCCc3nc(-c4ccccc4)oc3C)ccc2C[C@H]1C(=O)O [Example 45, 2-(3-Methyl-2-butenoyl)-7-[2-(5-methyl-2-phenyloxazol-4-yl)ethoxy]-1,2,3,4-tetrahydroisoquinoline-(3S)-carboxylic acid]
The “Decrease (%) in plasma glucose level” value of the first is lower: 11.8% for the first, 12.6% for the second.

Going from CCCCCCN1Cc2cc(OCCc3nc(-c4ccccc4)oc3C)ccc2C[C@H]1C(=O)O [Example 6] to Cc1oc(-c2ccccc2)nc1CCOc1ccc2c(c1)CN(CC(C)C)[C@H](C(=O)O)C2 [Example 7, 2-Isobutyl-7-[2-(5-methyl-2-phenyloxazol-4-yl)ethoxy]-1,2,3,4-tetrahydroisoquinoline-(3S)-carboxylic acid], the “Decrease (%) in plasma glucose level” value rises from 12.2% to 17.4%.

First: Cc1oc(-c2ccccc2)nc1CCOc1ccc2c(c1)CN(CCCc1ccccc1)[C@H](C(=O)O)C2 [Example 9, 7-[2-(5-Methyl-2-phenyloxazol-4-yl)ethoxy]-2-(3-phenylpropyl)-1,2,3,4-tetrahydroisoquinoline-(3S)-carboxylic acid]
Second: Cc1oc(-c2ccccc2)nc1CCOc1ccc2c(c1)CN(Cc1ccccn1)[C@H](C(=O)[O-])C2.[Na+] [Example 48, Sodium 7-[2-(5-methyl-2-phenyloxazol-4-yl)ethoxy]-2-(pyridin-2-ylmethyl)-1,2,3,4-tetrahydroisoquinoline-(3S)-carboxylate]
The “Decrease (%) in plasma glucose level” value of the first is higher: 20.3% for the first, 16.1% for the second.

First: O=C(O)[C@@H]1Cc2ccc(OCCC3CNc4ccccc43)cc2CN1Cc1ccccc1 (stereo partly drawn) [Example 41, 2-Benzyl-7-[(indolin-3-yl)ethoxy]-1,2,3,4-tetrahydroisoquinoline-(3S)-carboxylic acid]
Second: O=C(O)[C@@H]1Cc2ccc(OCCc3cc4ccccc4o3)cc2CN1Cc1ccccc1 [Example 67, 7-[2-(Benzofran-2-yl)ethoxy]-2-benzyl-1,2,3,4-tetrahydroisoquinoline-(3S)-carboxylic acid]
The “Decrease (%) in plasma glucose level” value of the first is higher: 11.1% for the first, 10.6% for the second.

First: Cc1oc(-c2ccccc2)nc1CCOc1ccc2c(c1)CN(C(=O)CC(C)(C)C)[C@H](C(=O)O)C2 [Example 46, 2-(3,3-Dimethylbutyryl)-7-[2-(5-methyl-2-phenyloxazol-4-yl)ethoxy]-1,2,3,4-tetrahydroisoquinoline-(3S)-carboxylic acid]
Second: COC(=O)CCC(=O)N1Cc2cc(OCCc3nc(-c4ccccc4)oc3C)ccc2C[C@H]1C(=O)O [Example 70, 2-[3-(Methoxycarbonyl)propionyl]-7-[2-(5-methyl-2-phenyloxazol-4-yl)ethoxy]-1,2,3,4-tetrahydroisoquinoline-(3S)-carboxylic acid]
The “Decrease (%) in plasma glucose level” value of the first is higher: 28.6% for the first, 15.2% for the second.

First: CC(C)(C)c1nc2cc(COc3ccc4c(c3)CN(Cc3ccccc3)[C@H](C(=O)O)C4)ccc2o1 [Example 53, 2-Benzyl-7-(2-tert-butylbenzoxazol-5-yl)methoxy-1,2,3,4-tetrahydroisoquinoline-(3S)-carboxylic acid]
Second: CC(C)c1nc2cc(COc3ccc4c(c3)CN(Cc3ccccc3)[C@H](C(=O)O)C4)ccc2o1 [Example 55, 2-Benzyl-7-(2-isopropylbenzoxazol-5-yl)methoxy-1,2,3,4-tetrahydroisoquinoline-(3S)-carboxylic acid]
The “Decrease (%) in plasma glucose level” value of the first is lower: 13.6% for the first, 13.9% for the second.

CC(C)(C)CN1Cc2cc(OCc3ccc4nc(C(C)(C)C)oc4c3)ccc2C[C@H]1C(=O)O [Example 54, 7-(2-tert-Butylbenzoxazol-6-yl)methoxy-2-(2,2-dimethylpropyl)-1,2,3,4-tetrahydroisoquinoline-(3S)-carboxylic acid] was tested, and the “Decrease (%) in plasma glucose level” value was 10.8%.
